In patent US20130005802A1, “TREATMENT OF WNT/FRIZZLED-RELATED DISEASES” (priority 2009, published 2013):

Key:
[1] = tested on: HT29 cells; assay: MTT assay, HT29; type: cell-based
Protocol: AsPC-1 tumor cells were cultured with T cells at a 1:5 ratio for 7 days in the presence of MEDI-565 or Cont BiTE (100 ng/mL). On day 7, floating cells were discarded and only adherent AsPC-1 cells were harvested with 0.05% trypsin/EDTA and washed with PBS three times. 1×10^4 AsPC-1 tumor cells were added to each well of 96 well flat bottom plates in 200 μL of complete RPMI1640 medium. The cells were allowed to adhere to the plates overnight at 37° C. (day 0) and were further incubated for 1, 2, 4 or 7 days. 20 μL of 10×MTT (3-[4,5-dimethylthiazol-2-yl]-2,5-diphenyl-tetrazolium bromide, 5 mg/mL) solution was added to each well, and incubated at 37° C. for 2 hr. The adherent cells were lysed with 150 μL of dimethyl sulfoxide (DMSO) and the optical density (OD) at 550 nm was measured.
Colorectal cancer cell lines were incubated in 96-well flat-bottomed plates at 5,000 cells per well in 200 μL of complete RPMI1640 medium. The cells were allowed to adhere to the plates overnight at 37° C. (day 0). […] Then 20 μL of 10×MTT solution was added to each well and incubated at 37° C. for 2 hr. The adherent cells were lysed with 150 μL of DMSO, and then optical density (OD) at 562 nm was measured. DMSO or culture medium was used as a control.
MTT assay was performed at each time point.

[2] = tested on: CRC039 tumors; assay: In vivo anti-tumor effect, CRC039 explant tumors; design: species or system NOD/SCID mice; conditions: 10, 100 or 200 mg/kg gavage, 6 days per week, 3 weeks
Protocol: HCT116 colon cancer cells were harvested from flasks with 0.05% Trypsin/EDTA, washed with PBS, and resuspended with Hanks buffered solution at 5×10^6 cells/100 μL concentration. CRC explants (CRC039) cultured in vitro were harvested with the same procedure, and mixed with equal volume of Matrigel to make 1×10^6 cells/100 μL concentration. A hundred μL of cell suspension was inoculated to the flank of NOD/SCID mice 4 days before the start of treatment. […] Tumor size was measured 3 times a week until mice were sacrificed.
HCT116 colon cancer cells were harvested from flasks with 0.05% Trypsin/EDTA and resuspended with Hanks buffered solution at 5×10^6 cells/100 μL concentration. CRC explants (CRC039) cultured in vitro were harvested with the same procedure and mixed with equal volume of Matrigel to make 1×10^6 cells/100 μL concentration. The cell suspension (100 μL) was inoculated into the flank of NOD/SCID mice 4 days before the start of treatment. […] Initially, 2 weeks of treatment was planned for both HCT116 and CRC039. However, treatment was extended to 3 weeks for CRC039 cells because the […] grew much slower than the HCT116 cell line. Tumor size was measured 3 times a week until mice were euthanized.

O=C(Nc1ccc([N+](=O)[O-])cc1Cl)c1cc(Cl)ccc1O [niclosamide]
concentration showing anti-proliferation effect ([1]; 0.4, 2, 10 μM tested, 72 hr): 10 µM | % proliferation over time ([1]; 0.4, 2, 10 μM, 24-96 hr): insensitive | tumor growth [2]: significantly inhibited the growth
